The subject of this assay is CsgA gene expression (csgBAC promoter-GFP reporter) in E. coli UTI89. The experiment in a line: In vitro live cell fluorescent reporter assay of CsgA transcription (Reporter Assay). It counts as cell-based. The following applies: Escherichia coli. Summed up: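 Compounds at 0.14–100 μM (1% DMSO final) incubated 20 h at 27 °C in YESCA broth with UTI89 carrying a single-copy GFP reporter under the csgBAC intergenic promoter region, inoculum OD600 0.003. Fluorescence normalized to vehicle wells gave IC50 and 50%-of-vehicle concentration; OD600 reduction >10% flagged growth impact.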

[1] abbreviates: read-out: Reporter Assay Abs IC50 (activity range), median Abs IC50 in the CsgA reporter assay, class symbol.
Where [2] appears, read: read-out: Reporter Assay Abs IC50 (μM), median Abs IC50 in the CsgA reporter assay, N/A = maximum expression reduction is <50% of control.
[3] abbreviates: read-out: Reporter Assay Abs IC50, activity range, class symbol.

Like-named read-outs stand apart in the source and are kept apart here.

On to `Cn1c(=O)c2c(nc(CCCCCCCN3CC(C(=O)O)n4c(c(-c5cccc(C(F)(F)F)c5)c(Cc5cccc6ccccc56)cc4=O)S3(=O)=O)n2C)n(C)c1=O` (centres unmarked) [Compound 047, 8-(naphthalen-1-ylmethyl)-6-oxo-9-(3-(trifluoromethyl)phenyl)-2-(7-(1,3,7-trimethyl-2,6-dioxo-2,3,6,7-tetrahydro-1H-purin-8-yl)heptyl)-3,4-dihydro-2H,6H-pyrido[1,2-e][1,2,5]thiadiazine-4-carboxylic acid 1,1-dioxide], for which the IC50 is below 1.3 µM under setting [1] and 0.9 µM under setting [2].
Take `O=C(O)c1c(-c2ccccc2)sc2c(-c3cccc(C(F)(F)F)c3)c(Cc3cccc4ccccc34)cc(=O)n12` [Compound 051, 7-(naphthalen-1-ylmethyl)-5-oxo-2-phenyl-8-(3-(trifluoromethyl)phenyl)-5H-thiazolo[3,2-a]pyridine-3-carboxylic acid]: the IC50 by setting is: under setting [1], below 1.3 µM; under setting [2], 1 µM.
As for `O=C(O)C1n2c(c(-c3cccc(C(F)(F)F)c3)c(Cc3cccc4ccccc34)nc2=O)SC12CCCC2` (centres unmarked) [Compound 053, 7′-(naphthalen-1-ylmethyl)-5′-oxo-8′-(3-(trifluoromethyl)phenyl)-3′H,5′H-spiro[cyclopentane-1,2′-thiazolo[3,2-c]pyrimidine]-3′-carboxylic acid], the IC50 reads like this: under setting [1], above 10 µM; under setting [2], 16.3 µM.
Regarding `O=C(O)C1CSc2c(-c3cccc(C(F)(F)F)c3)c(Cc3cccc4ccccc34)cc(=S)n21` (centres unmarked) [Compound 054, 7-(naphthalen-1-ylmethyl)-5-thioxo-8-(3-(trifluoromethyl)phenyl)-2,3-dihydro-5H-thiazolo[3,2-a]pyridine-3-carboxylic acid], the IC50 by setting is: under setting [1], 4.6 to 10 µM; under setting [2], 6.3 µM.
On to `O=C(O)C1CN(CCCO)S(=O)(=O)c2c(-c3cccc(C(F)(F)F)c3)c(Cc3cccc4ccccc34)cc(=O)n21` (centres unmarked) [Compound 056, 2-(3-hydroxypropyl)-8-(naphthalen-1-ylmethyl)-6-oxo-9-(3-(trifluoromethyl)phenyl)-3,4-dihydro-2H,6H-pyrido[1,2-e][1,2,5]thiadiazine-4-carboxylic acid 1,1-dioxide], for which the IC50 was above 10 µM under setting [1] and 19.8 µM under setting [2].
For the molecule `O=C(O)C1CSc2c(-c3cccc(C(F)(F)F)c3)c(Cc3cccc4ccccc34)c(CO)c(=O)n21` (centres unmarked) [Compound 057, 6-(hydroxymethyl)-7-(naphthalen-1-ylmethyl)-5-oxo-8-(3-(trifluoromethyl)phenyl)-2,3-dihydro-5H-thiazolo[3,2-a]pyridine-3-carboxylic acid], the IC50 under setting [1] fell in the range of 4.6 to 10 µM and the IC50 under setting [2] was 7.1 µM.
For `CC1(C)Sc2c(-c3cccc(C(F)(F)F)c3)c(Cc3cccc4ccccc34)nc(=O)n2C1C(=O)O` (centres unmarked) [Compound 059, 2,2-dimethyl-7-(naphthalen-1-ylmethyl)-5-oxo-8-(3-(trifluoromethyl)phenyl)-2,3-dihydro-5H-thiazolo[3,2-c]pyrimidine-3-carboxylic acid], in that order: above 10 µM and 21.1 µM.
For `O=C(O)c1c(CCc2ccccc2)sc2c(-c3cccc(C(F)(F)F)c3)c(Cc3cccc4ccccc34)cc(=O)n12` [Compound 062, 7-(naphthalen-1-ylmethyl)-5-oxo-2-phenethyl-8-(3-(trifluoromethyl)phenyl)-5H-thiazolo[3,2-a]pyridine-3-carboxylic acid], in that order: below 1.3 µM and 0.9 µM.
For `O=C(O)C1COc2c(-c3cccc(C(F)(F)F)c3)c(Cc3cccc4ccccc34)cc(=O)n21` (centres unmarked) [Compound 064, 7-(naphthalen-1-ylmethyl)-5-oxo-8-(3-(trifluoromethyl)phenyl)-2,3-dihydro-5H-oxazolo[3,2-a]pyridine-3-carboxylic acid], the IC50 under setting [1] is above 10 µM and the IC50 under setting [2] was 45.3 µM.
As for `O=C(O)C1CN(C[C@H](O)CO)S(=O)(=O)c2c(-c3cccc(C(F)(F)F)c3)c(Cc3cccc4ccccc34)cc(=O)n21` (stereo partly drawn) [Compound 065a, 2-((S)-2,3-dihydroxypropyl)-8-(naphthalen-1-ylmethyl)-6-oxo-9-(3-(trifluoromethyl)phenyl)-3,4-dihydro-2H,6H-pyrido[1,2-e][1,2,5]thiadiazine-4-carboxylic acid 1,1-dioxide], the IC50 runs as follows: under setting [1], above 10 µM; under setting [2], 24.5 µM.
As to `Cc1c(Cc2cccc3ccccc23)c(-c2cccc(C(F)(F)F)c2)c2n(c1=O)C(C(=O)O)CN(C)S2(=O)=O` (centres unmarked) [Compound 068, 2,7-dimethyl-8-(naphthalen-1-ylmethyl)-6-oxo-9-(3-(trifluoromethyl)phenyl)-3,4-dihydro-2H,6H-pyrido[1,2-e][1,2,5]thiadiazine-4-carboxylic acid 1,1-dioxide], the IC50 is above 10 µM under setting [1] and 11.1 µM under setting [2].
With `CN1CC(C(=O)O)n2c(c(-c3cccc(C(F)(F)F)c3)c(Cc3cccc4ccccc34)c(NC3CCCC3)c2=O)S1(=O)=O` (centres unmarked) [Compound 070, 7-(cyclopentylamino)-2-methyl-8-(naphthalen-1-ylmethyl)-6-oxo-9-(3-(trifluoromethyl)phenyl)-3,4-dihydro-2H,6H-pyrido[1,2-e][1,2,5]thiadiazine-4-carboxylic acid 1,1-dioxide], the IC50 by setting is: under setting [1], 1.3 to 4.5 µM; under setting [2], 2.3 µM.
Regarding `CN1CC(C(=O)O)n2c(c(-c3cccc(C(F)(F)F)c3)c(Cc3cccc4ccccc34)c(NCc3ccccc3)c2=O)S1(=O)=O` (centres unmarked) [Compound 071], the half-inhibitory concentration (IC50) is 1.3 to 4.5 µM under setting [1] and 1.6 µM under setting [2].
On to `O=C(O)C1CSc2c(-c3cccc(C(F)(F)F)c3)c(C(F)(F)c3cccc4ccccc34)cc(=O)n21` (centres unmarked) [Compound 073, 7-(difluoro(naphthalen-1-yl)methyl)-5-oxo-8-(3-(trifluoromethyl)phenyl)-2,3-dihydro-5H-thiazolo[3,2-a]pyridine-3-carboxylic acid], for which the IC50 was 4.6 to 10 µM under setting [1] and 6 µM under setting [2].
`CCCN1CC(C(=O)O)n2c(c(-c3cccc(C(F)(F)F)c3)c(C(F)(F)c3cccc4ccccc34)cc2=O)S1(=O)=O` (centres unmarked) [Compound 138, 8-(difluoro(naphthalen-1-yl)methyl)-6-oxo-2-propyl-9-(3-(trifluoromethyl)phenyl)-3,4-dihydro-2H,6H-pyrido[1,2-e][1,2,5]thiadiazine-4-carboxylic acid 1,1-dioxide]: the IC50 is 2.5 µM under setting [2] and 1.3 to 4.5 µM under setting [3].
As to `CCc1c(Cc2cccc3ccccc23)c(-c2cccc(C(F)(F)F)c2)c2n(c1=O)C(C(=O)O)CN2Cc1ccccc1` (centres unmarked) [Compound 140, 1-benzyl-6-ethyl-7-(naphthalen-1-ylmethyl)-5-oxo-8-(3-(trifluoromethyl)phenyl)-1,2,3,5-tetrahydroimidazo[1,2-a]pyridine-3-carboxylic acid], the IC50 under setting [2] was found to be 1 µM and the IC50 under setting [3] is below 1.3 µM.
On to `CCCN1CC(C(=O)O)n2c(c(-c3cccc(C(F)(F)F)c3)c(Cc3cccc4ccccc34)c(O)c2=O)S1(=O)=O` (centres unmarked) [Compound 141, 7-hydroxy-8-(naphthalen-1-ylmethyl)-6-oxo-2-propyl-9-(3-(trifluoromethyl)phenyl)-3,4-dihydro-2H,6H-pyrido[1,2-e][1,2,5]thiadiazine-4-carboxylic acid 1,1-dioxide], for which the IC50 reads like this: under setting [2], 2.7 µM; under setting [3], 1.3 to 4.5 µM.
On to `CCCN1CC(C(=O)O)n2c(c(-c3cccc(C(F)(F)F)c3)c(Cc3cccc4ccccc34)c(Cl)c2=O)S1(=O)=O` (centres unmarked) [Compound 142, 7-chloro-8-(naphthalen-1-ylmethyl)-6-oxo-2-propyl-9-(3-(trifluoromethyl)phenyl)-3,4-dihydro-2H,6H-pyrido[1,2-e][1,2,5]thiadiazine-4-carboxylic acid 1,1-dioxide], for which the IC50 is 2.3 µM under setting [2] and 1.3 to 4.5 µM under setting [3].
As for `CCCN1CC(C(=O)O)n2c(c(-c3cccc(C(F)(F)F)c3)c(Cc3cccc4ccccc34)c(OCC)c2=O)S1(=O)=O` (centres unmarked) [Compound 143, 7-ethoxy-8-(naphthalen-1-ylmethyl)-6-oxo-2-propyl-9-(3-(trifluoromethyl)phenyl)-3,4-dihydro-2H,6H-pyrido[1,2-e][1,2,5]thiadiazine-4-carboxylic acid 1,1-dioxide], the IC50 by setting is: under setting [2], 5.2 µM; under setting [3], 4.6 to 10 µM.
As to `CCCN1CC(C(=O)O)n2c(c(-c3cccc(C(F)(F)F)c3)c(Cc3cccc4ccccc34)c(NC(=O)C(C)C)c2=O)S1(=O)=O` (centres unmarked) [Compound 152, 7-isobutyramido-8-(naphthalen-1-ylmethyl)-6-oxo-2-propyl-9-(3-(trifluoromethyl)phenyl)-3,4-dihydro-2H,6H-pyrido[1,2-e][1,2,5]thiadiazine-4-carboxylic acid 1,1-dioxide], the IC50 by setting is: under setting [2], 11.4 µM; under setting [3], above 10 µM.
For `CCCN1CC(C(=O)O)n2c(c(-c3cccc(C(F)(F)F)c3)c(Cc3cccc4ccccc34)c(NC(=O)CC)c2=O)S1(=O)=O` (centres unmarked) [Compound 153, 8-(naphthalen-1-ylmethyl)-6-oxo-7-propionamido-2-propyl-9-(3-(trifluoromethyl)phenyl)-3,4-dihydro-2H,6H-pyrido[1,2-e][1,2,5]thiadiazine-4-carboxylic acid 1,1-dioxide], in that order: 16.6 µM and above 10 µM.
The like results for `CCCNC(=O)c1c(Cc2cccc3ccccc23)c(-c2cccc(C(F)(F)F)c2)c2n(c1=O)C(C(=O)O)CN(C)S2(=O)=O` (centres unmarked) [Compound 154, 2-methyl-8-(naphthalen-1-ylmethyl)-6-oxo-7-(propylcarbamoyl)-9-(3-(trifluoromethyl)phenyl)-3,4-dihydro-2H,6H-pyrido[1,2-e][1,2,5]thiadiazine-4-carboxylic acid 1,1-dioxide] were, in that order, 6.1 µM and 4.6 to 10 µM.

The record behind these values is patent publication US20230131899A1, “INHIBITORS OF MICROBIALLY INDUCED AMYLOID” (Axial Therapeutics, Inc., priority 2020, published 2023).
